Assay results reported in patent US12187728B2 (Raze Therapeutics, Inc., priority 2015, dated 2025).

Target: T1, Human MTHFD2 (Homo sapiens, UniProt P13995)
T1 construct: residues 36-350 in Uniport ID P13995; His6 (N); made in house; host or cells: E. coli
T1 sequence (P13995 36-350): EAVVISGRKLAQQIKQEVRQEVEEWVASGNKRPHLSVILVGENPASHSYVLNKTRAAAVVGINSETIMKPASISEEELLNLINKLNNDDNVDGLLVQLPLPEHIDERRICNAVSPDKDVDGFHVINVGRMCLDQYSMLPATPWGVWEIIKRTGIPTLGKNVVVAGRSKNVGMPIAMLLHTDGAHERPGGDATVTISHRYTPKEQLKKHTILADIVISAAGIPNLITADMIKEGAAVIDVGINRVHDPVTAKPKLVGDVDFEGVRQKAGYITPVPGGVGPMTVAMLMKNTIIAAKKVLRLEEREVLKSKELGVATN
Experiment: MTHFD2 Activity Assay (dehydrogenase activity, diaphorase/resazurin coupled fluorescence)
Assay type: biochemical
Details: inhibitory activity (IC50 and/or binding constant); 0.2 nM MTHFD2, 11 concentrations
Method in brief: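 Resorufin fluorescence (ex 525, em 598 nm) reports NADH formed by the dehydrogenase via diaphorase coupling. Enzyme (0.2 nM, residues 36-350, N-His6) sat with compound 15 min before 70 μM CH2-THF and 1 mM NAD+ started a 30 min reaction. IC50s come from 4-parameter fits over 11 concentrations.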

IC50 [nM]	SMILES
10 to 1000	Cn1c(Nc2ccccn2)nc2c1c(=O)n(Cc1ccc(Cl)c(Cl)c1)c(=O)n2C [Example 146, 1-(3,4-dichlorobenzyl)-3,7-dimethyl-8-(pyridin-2-ylamino)-1H-purine-2,6(3H,7H)-dione]
10 to 1000	Cn1c(=O)n(Cc2cc3c(Cl)cccc3[nH]2)c(=O)c2c1nc1n2CCNC1 [Example 476, 3-((4-chloro-1H-indol-2-yl)methyl)-1-methyl-6,7,8,9-tetrahydropyrazino[1,2-f]purine-2,4(1H,3H)-dione]
10 to 1000	Cn1c(N[C@@H]2CCCNC2)nc2c1c(=O)n(Cc1ccc(Cl)c(Cl)c1)c(=O)n2C [Example 69, 1-[(3,4-dichlorophenyl)methyl]-3,7-dimethyl-8-{[(3R)-piperidin-3-yl]amino}-2,3,6,7-tetrahydro-1H-purine-2,6-dione]
10 to 1000	C[C@@H](CCO)Nc1nc2c(c(=O)n(Cc3ccc4sccc4c3)c(=O)n2C)n1C [Example 51, 1-(1-benzothiophen-5-ylmethyl)-8-{[(2S)-4-hydroxybutan-2-yl]amino}-3,7-dimethyl-2,3,6,7-tetrahydro-1H-purine-2,6-dione]
10 to 1000	Cn1c(Nc2ccncc2)nc2c1c(=O)n(Cc1ccc(Cl)c(Cl)c1)c(=O)n2C [Example 125, 1-(3,4-dichlorobenzyl)-3,7-dimethyl-8-(pyridin-4-ylamino)-1H-purine-2,6(3H,7H)-dione]
> 10000	Cn1c(NCCCO)nc2c1c(=O)n(Cc1ccc(F)c(F)c1)c(=O)n2C [Example 29, 1-[(3,4-difluorophenyl)methyl]-8-[(3-hydroxypropyl)amino]-3,7-dimethyl-2,3,6,7-tetrahydro-1H-purine-2,6-dione]
> 10000	COCc1cc(Cn2c(=O)c3c(ncn3C)n(C)c2=O)ccc1Cl [Example 252, 1-(4-chloro-3-(methoxymethyl)benzyl)-3,7-dimethyl-1H-purine-2,6(3H,7H)-dione]
10 to 1000	Cn1c(NCCC(=O)O)nc2c1c(=O)n(Cc1ccc(Cl)c(Cl)c1)c(=O)n2C [Example 37, 3-({1-[(3,4-dichlorophenyl)methyl]-3,7-dimethyl-2,6-dioxo-2,3,6,7-tetrahydro-1H-purin-8-yl}amino)propanoic acid]
1000 to 5000	Cn1c(NCCCO)nc2[nH]c(=O)n(Cc3ccc(Cl)c(Cl)c3)c(=O)c21 [Example 97, 1-[(3,4-dichlorophenyl)methyl]-8-[(3-hydroxypropyl)amino]-7-methyl-2,3,6,7-tetrahydro-1H-purine-2,6-dione]
1000 to 5000	COC(=O)c1ccc(Nc2nc3c(c(=O)n(Cc4ccc(Cl)c(Cl)c4)c(=O)n3C)n2C)cc1 [Example 154, Methyl 4-(1-(3,4-dichlorobenzyl)-3,7-dimethyl-2,6-dioxo-2,3,6,7-tetrahydro-1H-purin-8-ylamino)benzoate]
> 10000	Cn1c(Nc2ccncc2)nc2c1c(=O)n(Cc1cc3c(-c4ccccc4)cccc3[nH]1)c(=O)n2C [Example 374, 3,7-dimethyl-1-((4-phenyl-1H-indol-2-yl)methyl)-8-(pyridin-4-ylamino)-1H-purine-2,6(3H,7H)-dione]
10 to 1000	Cn1c(Nc2ccnc([C@@H]3C[C@H]3C(=O)O)c2)nc2c1c(=O)n(Cc1ccc(Cl)c(Cl)c1)c(=O)n2C (single isomer, unassigned) [Example 300, (1R,2R)-2-(4-((1-(3,4-dichlorobenzyl)-3,7-dimethyl-2,6-dioxo-2,3,6,7-tetrahydro-1H-purin-8-yl)amino)pyridin-2-yl)cyclopropanecarboxylic acid or (1S,2S)-2-(4-((1-(3,4-dichlorobenzyl)-3,7-dimethyl-2,6-dioxo-2,3,6,7-tetrahydro-1H-purin-8-yl)amino)pyridin-2-yl)cyclopropanecarboxylic acid]
10 to 1000	Cc1cccc2cc(Cn3c(=O)c4c(nc(C(C)N)n4C)n(C)c3=O)ccc12 (stereo not drawn) [Example 448, 8-(1-aminoethyl)-3,7-dimethyl-1-((5-methylnaphthalen-2-yl)methyl)-1H-purine-2,6(3H,7H)-dione]
10 to 1000	Cn1c(N[C@H]2CC[C@@H](O)C2)nc2c1c(=O)n(Cc1ccc3sccc3c1)c(=O)n2C (racemic) [Example 74, (±)-1-(1-benzothiophen-5-ylmethyl)-8-{[(cis)-3-hydroxycyclopentyl]amino}-3,7-dimethyl-2,3,6,7-tetrahydro-1H-purine-2,6-dione or (±)-1-(1-benzothiophen-5-ylmethyl)-8-{[(trans)-3-hydroxycyclopentyl]amino}-3,7-dimethyl-2,3,6,7-tetrahydro-1H-purine-2,6-dione]
10 to 1000	Cn1c(Nc2cccc(CC(=O)O)c2)nc2c1c(=O)n(Cc1cc3c(Cl)cccc3[nH]1)c(=O)n2C [Example 339, 2-(3-((1-((4-chloro-1H-indol-2-yl)methyl)-3,7-dimethyl-2,6-dioxo-2,3,6,7-tetrahydro-1H-purin-8-yl)amino)phenyl)acetic acid]
10 to 1000	Cn1c(Nc2ccncc2)nc2c1c(=O)n(Cc1ccc3c(Cl)cccc3c1)c(=O)n2C [Example 402, 1-((5-chloronaphthalen-2-yl)methyl)-3,7-dimethyl-8-(pyridin-4-ylamino)-1H-purine-2,6(3H,7H)-dione]
5000 to 10000	Cn1cnc2c1c(=O)n(Cc1cc3cccnc3[nH]1)c(=O)n2C [Example 290, 1-((1H-pyrrolo[2,3-b]pyridin-2-yl)methyl)-3,7-dimethyl-1H-purine-2,6(3H,7H)-dione]
1000 to 5000	Cn1c(N2CC(O)C2)nc2c1c(=O)n(Cc1cc3ccccc3[nH]1)c(=O)n2C [Example 192, 1-((1H-indol-2-yl)methyl)-8-(3-hydroxyazetidin-1-yl)-3,7-dimethyl-1H-purine-2,6(3H,7H)-dione]
10 to 1000	Cn1c(C(C(N)=O)c2ccncc2)nc2c1c(=O)n(Cc1cc3c(Cl)cccc3[nH]1)c(=O)n2C (stereo not drawn) [Example 480, 2-(1-((4-chloro-1H-indol-2-yl)methyl)-3,7-dimethyl-2,6-dioxo-2,3,6,7-tetrahydro-1H-purin-8-yl)-2-(pyridin-4-yl)acetamide]
> 10000	Cn1c(NC2(C(=O)O)CCCC2)nc2c1c(=O)n(Cc1ccc(C(F)(F)F)cc1)c(=O)n2C [Example 149, 1-(3,7-dimethyl-2,6-dioxo-1-(4-(trifluoromethyl)benzyl)-2,3,6,7-tetrahydro-1H-purin-8-ylamino)cyclopentanecarboxylic acid]
1000 to 5000	Cn1cnc2c1c(=O)n(Cc1cc3cc(C#N)ccc3[nH]1)c(=O)n2C [Example 257, 2-((3,7-dimethyl-2,6-dioxo-2,3,6,7-tetrahydro-1H-purin-1-yl)methyl)-1H-indole-5-carbonitrile]
1000 to 5000	COc1ccc2[nH]c(Cn3c(=O)c4c(ncn4C)n(C)c3=O)cc2c1 [Example 239, 1-((5-methoxy-1H-indol-2-yl)methyl)-3,7-dimethyl-1H-purine-2,6(3H,7H)-dione]
10 to 1000	Cn1c(Nc2ccncc2)nc2c1c(=O)n(Cc1cc3cccc(F)c3[nH]1)c(=O)n2C [Example 366, 1-[(7-fluoro-1H-indol-2-yl)methyl]-3,7-dimethyl-8-(4-pyridylamino)purine-2,6-dione]
10 to 1000	Cn1c(N[C@H](CO)CC2CCCCC2)nc2c1c(=O)n(Cc1ccc(Cl)c(Cl)c1)c(=O)n2C [Example 121, (S)-8-(1-cyclohexyl-3-hydroxypropan-2-ylamino)-1-(3,4-dichlorobenzyl)-3,7-dimethyl-1H-purine-2,6(3H,7H)-dione]
